Starred links: 1 amine or outer side, 2 acyl side, 3 side chain; linkers in the order of their positions; H or OH if unused. Non-standard residues stand in square brackets, D forms with d. Residues, ends and D or L forms follow the SMILES beside them. ξ: configuration not given here. Oic = O=C(O)[C@@H]1C[C@@H]2CCCC[C@@H]2N1; GABOB(3R) = O=C(C[C@@H](O)CN[*:1])[*:2]; tBuAla = CC(C)(C)C[C@H](N)C(=O)O; ξVal(3-OH) = CC(C)(O)C(N)C(=O)O; 4Amb = NCc1ccc(C(=O)O)cc1
Target: full-length EB3 (Homo sapiens, UniProt Q9UPY8)
Assay: STD-NMR binding to EB3 (amplification factor)
Conditions: versus the linear precursor
Description: To screen these drug-like compounds for binding to full-length EB3, we employed the saturation transfer difference (STD)-NMR approach as a cell-free throughput screening platform. We were unable to use other methods, such as isothermal titration calorimetry, because of the nature of the EB3 dimer, which dynamically exchanges chains within the dimer—a process influenced by the binding of the C-terminus to its partners, such as the tested peptides. To analyze the STD-NMR data quantitatively, we established the amplification factor (AMPSTD), a change in signal intensity upon saturation that is normalized to ligand abundance (Fig. 1a), as a measure of the binding affinity of the compounds to the target protein EB3. […]
Fig. 1 NMR-based characterization of EB3 inhibitors. a The saturation transfer difference (STD) NMR approach was used to profile peptide binding to EB3. […] The amplification ratio was calculated as follows: AMPSTD = ISTD/INO SAT x {L}, where ISTD is the highest STD signal intensity measured with saturation; INO SAT is the intensity measured for the same signal without saturation; and {L} is the peptide concentration. c ^1H-^15N HSQC spectrum of ^15N-enriched EB3_200-281 alone (black) and in the presence of a 1:1 molar ratio of 109 (cyan). […]

Chain of full-length EB3 (Q9UPY8 whole entry, species assumed): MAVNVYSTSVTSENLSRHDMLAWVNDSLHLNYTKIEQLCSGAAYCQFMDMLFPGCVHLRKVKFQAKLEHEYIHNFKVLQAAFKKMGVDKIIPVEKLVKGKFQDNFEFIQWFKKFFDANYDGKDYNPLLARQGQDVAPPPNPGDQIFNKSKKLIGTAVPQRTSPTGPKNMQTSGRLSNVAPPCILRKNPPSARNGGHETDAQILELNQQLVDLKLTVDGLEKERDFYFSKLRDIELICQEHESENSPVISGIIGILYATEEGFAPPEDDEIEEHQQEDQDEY

CC(C)(C)C[C@@H]1NC(=O)C[C@@H](O)CNC(=O)[C@@H]2C[C@@H]3CCCC[C@@H]3N2C(=O)[C@H](CC(C)(C)C)NC(=O)c2ccc(cc2)CNC(=O)C(C(C)(C)O)NC(=O)[C@@H](Cc2ccccc2)NC1=O (stereo partly drawn) [compound 109, (1^2S,1^3aS,1^7aS,3S,10S,13R,16S,20R)-13-benzyl-20-hydroxy-10-(2-hydroxypropan-2-yl)-3,16-dineopentyl-1^2,1^3,1^3a,1^4,1^5,1^6,1^7,1^7a-octahydro-1^1H-4,8,11,14,17,22-hexaaza-1(1,2)-indola-6(1,4)-benzenacyclotricosaphane-2,5,9,12,15,18,23-heptaone.] (cyclo([4Amb][tBuAla][Oic][GABOB(3R)][tBuAla][dF][ξVal(3-OH)]))
improvement of EB3 binding by head-to-tail cyclization: approximately 4 fold
